Data on four compounds can be found in paper PMC10461232, “Structure-Based Design of Transport-Specific Multitargeted One-Carbon Metabolism Inhibitors in Cytosol and Mitochondria” (Journal of Medicinal Chemistry, 2023).

One test deals with KB tumor cells. Put plainly: Metabolite rescue of growth inhibition in KB tumor cells. The note with it: serine- and glycine-free medium, adenosine 60 μM. In kind it is cell-based, human. From the text:
To confirm the targeted pathways for the pyrrolo[3,2-d]pyrimidine antifolates in tumor cells, we treated KB human tumor cells cultured in serine- and glycine-free media with the pyrrolo[3,2-d]pyrimidine compounds (4–9, 11–16) to test for the rescue by added nucleosides and glycine. Results were compared to those for AGF94, a pyrrolo[2,3-d]pyrimidine antifolate that inhibits GARFTase without effects on SHMT2,[69] and to compounds 1, 2, and 3, documented inhibitors of mitochondrial C1 metabolism and de novo purine biosynthesis in human tumor cells.[36] The results are shown in Figures 15 and S11 (Supplemental Information). […]
For some experiments with KB tumor cells, cells were cultured in serine-, glycine-, and folate-free RPMI 1640 (Fisher Scientific), supplemented with 10% dialyzed fetal bovine serum, antibiotics, 25 nM leucovorin, and 2 mM L-glutamine. In vitro growth inhibition was measured (above), without additions, or in the presence of folic acid (200 nM), or thymidine (10 μM), adenosine (60 μM), 5-aminoimidazole-4-carboxamide (AICA) (320 μM), and/or glycine (130 μM) to establish the inhibitory effects of the antifolate drugs on de novo thymidylate synthase versus de novo purine nucleotide biosynthesis (GARFTase and AICARFTase) or mitochondrial C1 metabolism at SHMT2.[36],[63],[64],[68],[69] […]

The next test addresses T1, SHMT2 (Homo sapiens, UniProt P34897).
T1 construct: made in house; host or cells: E. coli Rosetta (DE3)pLysS
T1 sequence (P34897 30-504): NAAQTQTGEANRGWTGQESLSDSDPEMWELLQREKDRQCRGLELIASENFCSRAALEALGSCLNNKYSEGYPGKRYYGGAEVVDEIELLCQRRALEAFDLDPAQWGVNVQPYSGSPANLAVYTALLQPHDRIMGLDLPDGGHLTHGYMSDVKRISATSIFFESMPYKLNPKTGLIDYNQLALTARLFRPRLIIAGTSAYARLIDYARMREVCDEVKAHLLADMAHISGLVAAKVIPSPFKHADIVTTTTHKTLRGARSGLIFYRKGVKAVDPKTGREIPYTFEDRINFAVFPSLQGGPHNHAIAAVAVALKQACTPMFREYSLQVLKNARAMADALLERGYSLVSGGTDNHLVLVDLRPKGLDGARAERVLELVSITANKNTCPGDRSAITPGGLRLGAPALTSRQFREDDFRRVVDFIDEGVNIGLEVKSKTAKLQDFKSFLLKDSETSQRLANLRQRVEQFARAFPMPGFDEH
Put plainly: SHMT2 inhibition assay coupled with MTHFD2, Ki. Type of test: biochemical. The note with it: purified His-SHMT2, 50 μM THF, 25 °C; mean (SD), at least 3 replicates. The protocol: (§1) MTHFD2 activities were assayed by a reaction with methylene THF and NAD^+. NADH production was measured by fluorescence (excitation 340 nm, emission 480 nm). Reaction conditions included 100 nM MTHFD2, 5 μM methylene THF, and concentrations of small-molecule inhibitor ranging from 0.02 nM to 2000 nM; NAD^+ (2.5 mM) was added to initiate the reaction. The reaction buffer consisted of 50 mM Tris-HCl, pH 7.5, 250 mM NaCl, 5 mM magnesium chloride, 5% glycerol, and 0.5 mM TCEP. […] To assay SHMT1 or SHMT2 (SHMT1/2) enzymes, a coupled reaction with His-MTHFD2 in 200-fold molar excess was used where the production of NADH was monitored by fluorescence with excitation at 360 nm and emission at 470 nm at 25 °C. The reactions contained 5 nM His-SHMT1/2, 50 μM THF, 20 mM serine, 10 μM His-MTHFD2, 2.5 mM NAD^+, and a range of inhibitor concentrations (final concentrations). The reactions were performed in buffer containing 20 mM sodium phosphate, pH 7.5, 100 mM KCl, 0.2 mM EDTA, and 5 mM β-Me. […] To calculate IC50 values for each inhibitor, initial velocities were graphed as a function of inhibitor concentrations and fit with a three-parameter nonlinear regression (GraphPad Prism 8.0). The equation [Ki = IC50/([S]/KM + 1)] was used to convert IC50’s to Ki values.

In a further test the target is T2, SHMT1 (Homo sapiens, UniProt P34896).
T2 construct: full-length SHMT1 with an N-terminal His6-tag; made in house; host or cells: E. coli Rosetta (DE3)pLysS
T2 sequence (P34896 1-483): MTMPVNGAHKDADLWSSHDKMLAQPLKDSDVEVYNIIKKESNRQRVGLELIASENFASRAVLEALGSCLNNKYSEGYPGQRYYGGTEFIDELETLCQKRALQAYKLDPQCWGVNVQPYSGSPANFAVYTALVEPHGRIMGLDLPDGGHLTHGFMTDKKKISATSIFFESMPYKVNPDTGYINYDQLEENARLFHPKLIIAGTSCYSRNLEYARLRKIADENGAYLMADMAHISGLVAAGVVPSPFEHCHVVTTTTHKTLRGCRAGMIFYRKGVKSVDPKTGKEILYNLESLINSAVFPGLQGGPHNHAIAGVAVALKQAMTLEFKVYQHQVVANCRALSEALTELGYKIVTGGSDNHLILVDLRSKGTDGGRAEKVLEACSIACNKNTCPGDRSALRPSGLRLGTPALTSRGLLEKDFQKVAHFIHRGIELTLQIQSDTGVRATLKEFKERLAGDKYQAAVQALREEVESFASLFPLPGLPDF
Nature of the test: SHMT1 inhibition assay coupled with MTHFD2, Ki. In kind it is biochemical. The note with it: purified His-SHMT1, 50 μM THF, 25 °C; mean (SD), at least 3 replicates.

In another test the target is T3, human GARFTase (Homo sapiens, UniProt P22102).
T3 construct: formyltransferase domain of human GARFTase (residues 808–1010); made in house; host or cells: E. coli Rosetta (DE3)pLysS
T3 sequence (P22102 808-1010): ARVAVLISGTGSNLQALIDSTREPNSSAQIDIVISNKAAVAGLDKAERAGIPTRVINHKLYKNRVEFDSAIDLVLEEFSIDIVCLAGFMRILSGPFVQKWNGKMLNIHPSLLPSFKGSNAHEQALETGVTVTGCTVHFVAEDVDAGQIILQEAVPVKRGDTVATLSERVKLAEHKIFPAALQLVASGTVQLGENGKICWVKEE
Nature of the test: GARFTase inhibition assay, Ki (10-formyl THF to THF, absorbance 298 nm). Type of test: biochemical. To be noted: purified His-GARFTase, 40 μM 10-formyl THF, 37 °C; mean (SD), at least 3 replicates.

A further test deals with D4 (FRβ) CHO cells. To be noted: classic antifolates, CHO cells expressing human FRβ; previously published; cited from earlier work.
For the next test, the system named is RT16 (FRα) CHO cells. The note with it: classic antifolates, CHO cells expressing human FRα; previously published; cited from earlier work.
The test system of another test is KB (RFC/PCFT/FRα) cells. Put plainly: Growth inhibition, KB nasopharyngeal carcinoma cells. The note with it: Homo sapiens, KB, folate-free RPMI 1640, 2 nM leucovorin, mean (SE). In kind it is cell-based, human. The protocol: The CHO cells were cultured in α-minimal essential medium (MEM) supplemented with 10% bovine calf serum (Fisher Scientific), penicillin (1000 U/mL)/streptomycin (1000 μg/mL), and 2 mM L-glutamine at 37 °C with 5% CO2. All of the R2 transfected cells (PC43-10, RT16, R2/PCFT4) were cultured in complete α-MEM media plus 1 mg/mL G418. Prior to the cytotoxicity assays (see below), RT16 and D4 cells were cultured for 3 days in complete folate-free RPMI 1640 (without added folate), and R2/PCFT4 and R2 cells were cultured in complete folate-free RPMI 1640 supplemented with dialyzed fetal bovine serum (Fisher Scientific) and 25 nM leucovorin plus 1 mg/mL G418. KB cells were routinely cultured in folate-free RPMI 1640 medium, supplemented with 10% fetal bovine serum (Fisher Scientific), penicillin-streptomycin solution, and 2 mM L-glutamine at 37 °C with 5% CO2.
For growth inhibition studies, cells (CHO, KB) were plated in 96-well dishes (∼2500–5000 cells/well, total volume of 200 μL medium) over a range of antifolate concentrations.[69],[77] The medium was folate-free RPMI 1640 with 10% dialyzed serum and antibiotics supplemented with 25 nM leucovorin for experiments with R2, PC43-10, and R2/PCFT4 cells. For experiments with RT16, D4, and KB cells, cells were cultured in folate-free RPMI medium with 10% dialyzed fetal bovine serum and antibiotics; the medium was supplemented with 2 nM leucovorin. […] Incubations were routinely for up to 96 h. Viable cells (reflecting cell viability) were assayed with Cell Titer Blue reagent (Promega, Madison, WI), with fluorescence measured (590 nm emission, 560 nm excitation) with a fluorescence plate reader.

A further test concerns the target T4, human ATIC (Homo sapiens, UniProt P31939).
T4 construct: N-terminal His6-tagged full-length human ATIC; made in house; host or cells: E. coli Rosetta (DE3)pLysS
Nature of the test: AICARFTase (ATIC) inhibition assay, Ki. In kind it is biochemical. The note with it: purified His-ATIC, AICARFTase activity, 50 μM 10-formyl THF, 25 °C; mean (SD), at least 3 replicates. As to the method: The cells were grown at 37 °C in 1 L cultures of LB media containing […] and […] until OD600 reached 0.6. Protein expression was induced by the addition of isopropyl β-D1-thiogalactopyranoside (IPTG, 500 μM).
His-ATIC was purified by Ni-NTA chromatography (Gold Biotechnology).[36] […] His-ATIC was eluted in 1 column volume fractions, 5 times with buffer containing 300 mM imidazole, 25 mM Tris-HCl, pH 7.5, 300 mM NaCl, and 5 mM β-Me. Size exclusion chromatography on a Superdex 200 16/60 (GE Healthcare) column was used for final purification using 20 mM Tris-HCl, pH 7.5, 150 mM NaCl, 50 mM KCl, 5 mM EDTA, and 5 mM dithiothreitol.
as §1

A further test deals with PC43-10 (RFC) CHO cells. To be noted: classic antifolates, CHO cells expressing human RFC; previously published; cited from earlier work.

T4 sequence (P31939 whole entry): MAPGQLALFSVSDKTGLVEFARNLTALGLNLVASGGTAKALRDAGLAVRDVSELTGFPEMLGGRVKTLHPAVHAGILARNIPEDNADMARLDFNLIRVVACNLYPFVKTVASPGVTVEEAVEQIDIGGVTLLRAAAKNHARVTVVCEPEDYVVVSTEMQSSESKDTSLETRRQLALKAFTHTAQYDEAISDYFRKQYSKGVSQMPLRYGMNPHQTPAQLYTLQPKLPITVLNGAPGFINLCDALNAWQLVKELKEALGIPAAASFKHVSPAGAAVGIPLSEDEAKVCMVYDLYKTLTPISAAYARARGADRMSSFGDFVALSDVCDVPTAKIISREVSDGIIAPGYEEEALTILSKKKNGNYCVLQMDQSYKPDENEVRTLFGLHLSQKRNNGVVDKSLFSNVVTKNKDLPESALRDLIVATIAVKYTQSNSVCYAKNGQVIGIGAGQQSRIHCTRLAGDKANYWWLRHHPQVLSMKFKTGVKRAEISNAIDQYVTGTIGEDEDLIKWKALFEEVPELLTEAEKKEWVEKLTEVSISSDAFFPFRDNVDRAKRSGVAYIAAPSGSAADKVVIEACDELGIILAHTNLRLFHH
Method for SHMT1: Kinetic measurements were recorded in triplicate using a flat, black-bottom, black-walled 96-well plate (Greiner Bio-One, 655900) and a BioTek Synergy Neo2 Plate Reader. […] To assay SHMT1 or SHMT2 (SHMT1/2) enzymes, a coupled reaction with His-MTHFD2 in 200-fold molar excess was used where the production of NADH was monitored by fluorescence with excitation at 360 nm and emission at 470 nm at 25 °C. The reactions contained 5 nM His-SHMT1/2, 50 μM THF, 20 mM serine, 10 μM His-MTHFD2, 2.5 mM NAD^+, and a range of inhibitor concentrations (final concentrations). The reactions were performed in buffer containing 20 mM sodium phosphate, pH 7.5, 100 mM KCl, 0.2 mM EDTA, and 5 mM β-Me. A BioTek Synergy Neo2 Plate Reader was used to record kinetic measurements in triplicate in a UV-transparent 96-well plate (Costar 3635) for GARFTase and AICARFTase assays and a black-well, black-bottom 96-well plate (Corning 3603). To calculate IC50 values for each inhibitor, initial velocities were graphed as a function of inhibitor concentrations and fit with a three-parameter nonlinear regression (GraphPad Prism 8.0). The equation [Ki = IC50/([S]/KM + 1)] was used to convert IC50’s to Ki values.

For `Nc1nc2[nH]c(CCCc3ccc(C(=O)N[C@@H](CCC(=O)O)C(=O)O)s3)cc2c(=O)[nH]1` [AGF94, (S)-2-({5-[3-(2-amino-4-oxo-4,7-dihydro-3H-pyrrolo[2,3-d]pyrimidin-6-yl)-propyl]-thiophene-2-carbonyl}-amino)-pentanedioic acid], the “effect of adenosine alone on growth inhibition” value in the test with KB tumor cells is given as “completely reversed”.

As for `Nc1nc2[nH]cc(CCc3ccc(C(=O)N[C@@H](CCC(=O)O)C(=O)O)cc3)c2c(=O)[nH]1` [PMX, N-{4-[2-(2-amino-3,4-dihydro-4-oxo-7H-pyrrolo[2,3-d]pyrimidin-5-yl)ethyl]benzoyl}-L-glutamic acid], the Ki on SHMT2 and at SHMT1 was more than 200 µM each time.

In the case of `C#CCC(Cc1cnc2nc(N)nc(N)c2n1)c1ccc(C(=O)N[C@@H](CCC(=O)O)C(=O)O)cc1` (stereo partly drawn) [PDX, N-(4-{1-[(2,4-diaminopteridin-6-yl)methyl]but-3-yn-1-yl}benzoyl)-L-glutamic acid], the inhibitory constant (Ki) – broadly, a measure of affinity in units of concentration, obtained from inhibition or displacement – was more than 200 µM at SHMT2, more than 150 µM on human GARFTase, more than 200 µM on human ATIC and more than 200 µM on SHMT1. Moreover, the IC50 (as a rule, the midpoint of a concentration-inhibition curve) with D4 (FRβ) CHO cells is 0.0025 µM; in the test with RT16 (FRα) CHO cells it was 0.043 µM; in the test on KB (RFC/PCFT/FRα) cells, 0.00047 µM; with PC43-10 (RFC) CHO cells, 0.00069 µM.

Consider `CN(Cc1cnc2nc(N)nc(N)c2n1)c1ccc(C(=O)N[C@@H](CCC(=O)O)C(=O)O)cc1` [MTX, methotrexate], for which the Ki was 98 ± 17 µM at SHMT2 and more than 200 µM at SHMT1.
